Where two headings read alike, the source gives them in different places.
Experiments:
[1] = target: T1, CPC-AH B (Hapsidospora chrysogena, UniProt A0A086SV17); assay: Effect of metals and inhibitors on CPC-AH B activity (HPLC test of DAC formation from CPC); assay type: biochemical, Acremonium chrysogenum
[2] = target: T1, CPC-AH B; assay: In-vitro deacetylation by enzymatic extracts from E. coli JM109(DE3)/pT7B2.2 (processed CPC-AH B); assay type: biochemical, Acremonium chrysogenum; conditions: substrate 20 mM, 60 minutes at 37° C.
[3] = system: extracellular CPC-AH; conditions: cited from earlier work
[4] = final concentration of the ions 1 mM
[5] = metals 1 mM, pre-incubated 15 minutes at 4° C., NONE = 100

T1 sequence (A0A086SV17 107-383): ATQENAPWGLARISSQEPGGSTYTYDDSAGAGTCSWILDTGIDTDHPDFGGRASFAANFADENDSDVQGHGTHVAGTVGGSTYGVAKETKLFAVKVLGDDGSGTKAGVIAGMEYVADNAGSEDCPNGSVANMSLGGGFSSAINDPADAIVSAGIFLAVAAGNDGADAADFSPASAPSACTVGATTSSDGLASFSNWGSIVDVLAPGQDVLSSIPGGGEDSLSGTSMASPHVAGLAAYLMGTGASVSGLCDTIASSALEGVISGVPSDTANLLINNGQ

Compound: [Cl-].[Na+] [NaCl]
- CPC-AH activity (%) [1]: 94%

Compound: AgNO3
- CPC-AH activity (%) [1]: 60%
- Effect of metal ion on CPC-AH B activity [1]: inhibit activity to a greater or lesser extent

Compound: CaCl2
- CPC-AH activity (%) [1]: 147%
- Effect of metal ion on CPC-AH B activity [1]: stimulating effect

Compound: O=C(O)CN(CCN(CC(=O)O)CC(=O)O)CC(=O)O [EDTA]
- CPC-AH activity (%) ([1]; inhibitor 0.1 mM, NONE = 100): 91%
- CPC-AH activity (%) ([1]; inhibitor 1 mM, NONE = 100): 87%
- CPC-AH activity (%) ([1]; inhibitor 10 mM, NONE = 100): 86%

Compound: O=S(=O)(F)Cc1ccccc1 [PMSF, phenylmethylsulphonyl fluoride]
- Effect of inhibitor on CPC-AH B activity [1]: strong inhibitory effect

Compound: O=S(=O)([O-])[O-].[Mn+2] [MnSO4]
- Effect of metal ion on CPC-AH B activity [1, 4]: stimulating effect
- CPC-AH activity (%) [1, 5]: 140%

Compound: O=S(=O)([O-])[O-].[Zn+2] [ZnSO4]
- Effect of metal ion on CPC-AH B activity [1, 4]: inhibit activity to a greater or lesser extent
- CPC-AH activity (%) [1, 5]: 60%

Compound: CoSO4
- CPC-AH activity (%) [1]: 80%

Compound: O=C([O-])[O-].[K+].[K+] [K2CO3]
- CPC-AH activity (%) [1, 5]: 77%

Compound: CuSO4
- CPC-AH activity (%) [1]: 64%
- Effect of metal ion on CPC-AH B activity [1]: inhibit activity to a greater or lesser extent

Compound: O=S(=O)([O-])[O-].[Mg+2] [MgSO4]
- Effect of metal ion on CPC-AH B activity [1, 4]: stimulating effect
- CPC-AH activity (%) [1, 5]: 141%

Compound: O=S(=O)([O-])[O-].[Fe+2] [FeSO4]
- Effect of metal ion on CPC-AH B activity [1, 4]: inhibit activity to a greater or lesser extent
- CPC-AH activity (%) [1, 5]: 49%

Compound: CC(=O)OCC1=C(C(=O)O)N2C(=O)[C@@H](N)[C@H]2SC1 [7-ACA, 7-aminocephalosporanic acid]
- Deacetylation of substrate [2]: detected appearance of the corresponding deacetylated derivatives

Compound: CC(=O)OCC1=C(C(=O)O)N2C(=O)[C@@H](NC(=O)CCC[C@@H](N)C(=O)O)[C@H]2SC1 [CPC, cephalosporin C]
- Deacetylation of substrate [2]: detected appearance of the corresponding deacetylated derivatives
- Km [3]: 20 mM
